Measurements reported in paper PMC4843002, “Identification of pyrazolopyridazinones as PDEδ inhibitors” (Nature Communications, 2016).

Molecular target: PDEδ (Homo sapiens, UniProt O43924)
Experiment: competitive fluorescence polarization displacement assay
Type: binding
Experimental: The Kd values were determined by the fluorescence polarization competition-binding assay, which we developed before.

**Q.** How did the Kd turn out when `Cc1ccc(-n2nc3c(=O)n(CCCC(=O)NCc4ccco4)nc(C)c3c2C)cc1` [2g] was run?
**A.** 50 ± 16 nM

**Q.** `Cc1c(Cl)cccc1NC(=O)CCCn1nc(C)c2c(C)n(-c3ccccc3)nc2c1=O` [2a] was tested. Which Kd did it give?
**A.** 5 ± 2 nM

**Q.** How did the Kd turn out when `Cc1nn(CCCC(=O)NCc2ccccc2)c(=O)c2nn(-c3ccccc3)c(C)c12` [2c] was run?
**A.** 42 ± 15 nM

**Q.** For `Cc1nn(CCCC(=O)NCc2ccco2)c(=O)c2nn(-c3ccccc3)c(C)c12` [2b], which Kd is on record?
**A.** 136 ± 55 nM

**Q.** `Cc1ccc(-n2nc3c(=O)n(CCCC(=O)NCc4ccccc4)nc(C)c3c2C)cc1` [2h] was tested. Which Kd did it give?
**A.** 17 ± 9 nM

**Q.** Which Kd does the source give for `Cc1ccc(-n2nc3c(=O)n(CCCC(=O)NCCc4ccccc4)nc(C)c3c2C)cc1` [2i] here?
**A.** 6 ± 2 nM

**Q.** `Cc1ccc(CNC(=O)CCCn2nc(C)c3c(C)n(-c4ccccc4)nc3c2=O)cc1` [2e] was tested. Which Kd did it give?
**A.** 96 ± 14 nM

**Q.** Which Kd does the source give for `COc1ccc(CNC(=O)CCCn2nc(C)c3c(C)n(-c4ccccc4)nc3c2=O)cc1` [2d] here?
**A.** 81 ± 21 nM

**Q.** Which Kd does the source give for `Cc1ccc(CCNC(=O)CCCn2nc(C)c3c(C)n(-c4ccc(C)cc4)nc3c2=O)cc1` [2j] here?
**A.** 5 ± 3 nM

**Q.** For `Cc1nn(CCCC(=O)NCCc2ccccc2)c(=O)c2nn(-c3ccccc3)c(C)c12` [2f], which Kd is on record?
**A.** 29 ± 7 nM
